# Data as given in patent US9725423B2, “Tetrazolinone compound and applications thereof” (SUMITOMO CHEMICAL COMPANY, LIMITED, priority 2012, dated 2017).
# Test system: cucumber powdery mildew fungus (Sphaerotheca fuliginea)
# Experiment: Cucumber powdery mildew control test, foliar spray on cucumber (Test Examples 6, 12, Comparative Test Example)
# Assay type: in vivo
# Conditions: 200 ppm, cucumber (SAGAMI HANJIRO), 8 days after inoculation
row,SMILES,area of lesion spots relative to that on an untreated plant
1,"CC(=NOCc1cccc(C)c1-n1nnn(C)c1=O)c1cccc(C(F)(F)F)c1 [1-methyl-4-{2-methyl-6-[1-(3-trifluoromethylphenyl)ethylideneaminooxymethyl]phenyl}-1,4-dihydrotetrazol-5-one]",≥ 70%
2,"CC(=NOCc1c(C)cccc1-n1nnn(C)c1=O)c1cccc(C(F)(F)F)c1 [1-{3-methyl-2-[1-(3-trifluoromethylphenyl)ethylideneaminooxymethyl]phenyl}-4-methyl-1,4-dihydrotetrazol-5-one]",≤ 30%

# Test system: diamondback moth (Plutella xylostella)
# Experiment: Diamondback moth mortality test on sprayed cabbage (Test Example 15)
# Assay type: in vivo
# Conditions: 120 h, 20 mL/cup sprayed on cabbage, second-instar larvae, 25° C., after 5 days
# Protocol: Each of formulations of the present compounds 6, 9, 26, 28, 31, 32, 33, 36, 71, 109, 114, 115, 125, and 149 obtained in Formulation Example 6 was diluted with water so that the concentration of the active ingredient is controlled to 500 ppm to prepare a test spraying solution. Meanwhile, the above test chemical solution was sprayed over three-leaf stage cabbage sowed in a polyethylene cup in the proportion of 20 mL/cup. After drying the chemical solution, stem and leaf portions were cut off and put in a 50 mL cup and five second-instar larvae of diamondback moth (Plutella xylostella) were released, and then the cup was capped. The cup was stored at 25° C. and, after 5 days, the number of surviving worms was counted and mortality was determined by the following equation. Mortality (%)=[(Number of dead insects)/(Number of tested insects)]×100
row,SMILES,mortality at 500 ppm
1,"CC(=NOCc1c(Cl)cccc1-n1nnn(C)c1=O)c1cccc([N+](=O)[O-])c1 [present compound 6, 1-{3-chloro-2-[1-(3-nitrophenyl)ethylideneaminooxymethyl]phenyl}-4-methyl-1,4-dihydrotetrazol-5-one]",≥ 80%
2,"CC(=NOCc1c(Cl)cccc1-n1nnn(C)c1=O)c1cccc(OC(F)(F)C(F)F)c1 [present compound 9, 1-(3-chloro-2-{1-[3-(1,1,2,2-tetrafluoroethoxyl)phenyl]ethylideneaminooxymethyl]phenyl}-4-methyl-1,4-dihydrotetrazol-5-one]",≥ 80%
3,"Cn1nnn(-c2cccc(Cl)c2CON=C(c2ccccc2)C(F)(F)F)c1=O [present compound 26, 1-[3-chloro-2-(2,2,2-trifluoro-1-phenylethylideneaminooxymethyl)phenyl]-4-methyl-1,4-dihydrotetrazol-5-one]",≥ 80%
4,"CC(=NOCc1c(Cl)cccc1-n1nnn(C)c1=O)c1cc(F)cc(F)c1 [present compound 28, 1-{3-chloro-2-[1-(3,5-difluorophenyl)ethylideneaminooxymethyl]phenyl}-4-methyl-1,4-dihydrotetrazol-5-one]",≥ 80%
5,"CC(=NOCc1c(C)cccc1-n1nnn(C)c1=O)c1cccc(Cl)c1 [present compound 31, 1-{3-methyl-2-[1-(3-chlorophenyl)ethylideneaminooxymethyl]phenyl}-4-methyl-1,4-dihydrotetrazol-5-one]",≥ 80%
6,"CC(=NOCc1c(C)cccc1-n1nnn(C)c1=O)c1cccc(OC(F)(F)F)c1 [present compound 32, 1-{3-methyl-2-[1-(3-trifluoromethoxyphenyl)ethylideneaminooxymethyl]phenyl}-4-methyl-1,4-dihydrotetrazol-5-one]",≥ 80%
7,"CC(=NOCc1c(C)cccc1-n1nnn(C)c1=O)c1cccc(OC(F)(F)C(F)F)c1 [present compound 33, 1-(3-methyl-2-{1-[3-(1,1,2,2-tetrafluoroethoxyl)phenyl]ethylideneaminooxymethyl}phenyl)-4-methyl-1,4-dihydrotetrazol-5-one]",≥ 80%
8,"CC(=NOCc1c(C)cccc1-n1nnn(C)c1=O)c1ccc2ccccc2c1 [present compound 36, 1-[3-methyl-2-(1-naphthalen-2-ylethylideneaminooxymethyl)phenyl]-4-methyl-1,4-dihydrotetrazol-5-one]",≥ 80%
9,"CC(=NOCc1c(C)cccc1-n1nnn(C)c1=O)c1cccc(C)c1 [present compound 71, 1-{3-methyl-2-[1-(3-methylphenyl)ethylideneaminooxymethyl]phenyl}-4-methyl-1,4-dihydrotetrazol-5-one]",≥ 80%
10,"CC(=NOCc1c(C)cccc1-n1nnn(C)c1=O)c1cccc(N(C)C)c1 [present compound 109, 1-{2-[1-(3-dimethylaminophenyl)ethylideneaminooxymethyl]-3-methylphenyl}-4-methyl-1,4-dihydrotetrazol-5-one]",≥ 80%
11,"CC(=NOCc1c(-n2nnn(C)c2=O)cccc1C(F)(F)F)c1cccc(OC(F)(F)F)c1 [present compound 114, 1-{2-[1-(3-trifluoromethoxyphenyl)ethylideneaminooxymethyl]-3-trifluoromethylphenyl}-4-methyl-1,4-dihydrotetrazol-5-one]",≥ 80%
12,"CC(=NOCc1c(-n2nnn(C)c2=O)cccc1C(F)(F)F)c1ccc2c(c1)CCC2 [present compound 115, 1-[2-(1-indan-5-ylethylideneaminooxymethyl)-3-trifluoromethylphenyl]-4-methyl-1,4-dihydrotetrazol-5-one]",≥ 80%
13,"CC(=NOCc1c(C2CC2)cccc1-n1nnn(C)c1=O)c1cccc2c1CCC2 [present compound 125, 1-[3-cyclopropyl-2-(1-indan-4-ylethylideneaminooxymethyl)phenyl]-4-methyl-1,4-dihydrotetrazol-5-one]",≥ 80%
14,"CC(=NOCc1c(C)cccc1-n1nnn(C)c1=O)c1ccccc1 [present compound 149, 1-[2-(1-phenylethylideneaminooxymethyl)-3-methylphenyl]-4-methyl-1,4-dihydrotetrazol-5-one]",≥ 80%
